Assay results taken from patent US9517269B1, “Stable pentobarbital formulation” (Akorn, Inc., priority 2013, dated 2016).

Tests used:
[1] = Formulation Development Study #2 (target pH 8.70): physical observations; assay type: physicochemical; conditions: below pH 8.7
Procedure: Based on Formulation Development Study #1, four more lab batches were made with different concentrations of propylene glycol and ethyl alcohol at target pH 8.70. The purpose of the study was to determine the influence of low pH and different concentrations of propylene glycol and ethyl alcohol on the product quality. Physical observations were recorded during compounding. Lab batch samples were placed on stability at room temperature, 40° C. and 50° C. Only physical observations were performed and recorded during stability. The stability study lasted one month.

[2] = Formulation Development Study #5 (44% propylene glycol): physical observations; assay type: physicochemical; conditions: with 44% propylene glycol at pH-9.0
Procedure: In order to determine at what pH precipitate forms at room temperature, three lab batches were made with 44% propylene glycol and target pH at 9.1, 9.0 and 8.9. […] Lab batch samples were placed on stability at room temperature, 40° C., and 50° C. for three months. Only physical observations were performed during the stability study.

[3] = background statement; cited from earlier work
[4] = Formulation Development Study #4 (target pH 9.0): physical observations; assay type: physicochemical; conditions: pH ˜9.0 and propylene glycol concentration less than 50%
Procedure: Four lab batches similar to Formulation Development Study #3 were made. The purpose of these batches was to find out if impurity at RRT 0.7 can be reduced by making lab batches with different concentrations of propylene glycol and alcohol at the target pH of 9.0. […] These four lab batches were placed on stability at room temperature, 40° C., and 50° C.

CCCC(C)C1(CC)C(=O)NC(=O)NC1=O (stereo not shown) [pentobarbital, 5-Ethyl-5-(1-methylbutyl)-2,4,6(1H,3H,5H)-pyrimidinetrione]
Stability of pentobarbital in solution (precipitation) [1]: not stable
Stability of pentobarbital in solution (precipitation) [2]: not stable
pH at which pentobarbital precipitates [3]: less than 9.0
Stability of pentobarbital in solution (precipitation) [4]: not stable
